Where two headings read alike, the source gives them in different places.
Legend:
[1] = target: WRN helicase (Homo sapiens (Human), UniProt Q14191); test: In vitro enzymatic activity assay on WRN helicase (DNA dependent ATPase assay, ADP-Glo); format: biochemical; settings: geometric means of at least 2 determinations; read-out: WRN ATPase Activity (IC50)
Summary of the method: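 The WRN helicase core (aa N517-P1238), 10 nM, hydrolysed 300 µM ATP in the presence of 0.2 nM FLAP26 DNA (Tris pH 7.5, 2 mM MgCl2, 50 mM NaCl) for 30 min at room temperature. ADP formed was quantified by ADP-Glo luminescence.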

[2] = system: DLD1-WRN-KO cells; test: Proliferation assay DLD1-WRN-KO (CellTiterGlo, 96 hours; off-target effects); settings: read-out: Proliferation Assay DLD1-WRN-KO (GI50)
[3] = system: SW48 cells; test: Proliferation assay SW48 (CellTiterGlo, 96 hours)
[4] = Homo sapiens, SW48, read-out: Proliferation Assay SW48 (GI50)
[5] = DLD1-WRN-KO cell line, geometric means of at least 2 determinations
[6] = read-out: Proliferation Assay SW48 (GI50), SW48 cell line, geometric means of at least 2 determinations

WRN helicase, sequence (Q14191 517-1238): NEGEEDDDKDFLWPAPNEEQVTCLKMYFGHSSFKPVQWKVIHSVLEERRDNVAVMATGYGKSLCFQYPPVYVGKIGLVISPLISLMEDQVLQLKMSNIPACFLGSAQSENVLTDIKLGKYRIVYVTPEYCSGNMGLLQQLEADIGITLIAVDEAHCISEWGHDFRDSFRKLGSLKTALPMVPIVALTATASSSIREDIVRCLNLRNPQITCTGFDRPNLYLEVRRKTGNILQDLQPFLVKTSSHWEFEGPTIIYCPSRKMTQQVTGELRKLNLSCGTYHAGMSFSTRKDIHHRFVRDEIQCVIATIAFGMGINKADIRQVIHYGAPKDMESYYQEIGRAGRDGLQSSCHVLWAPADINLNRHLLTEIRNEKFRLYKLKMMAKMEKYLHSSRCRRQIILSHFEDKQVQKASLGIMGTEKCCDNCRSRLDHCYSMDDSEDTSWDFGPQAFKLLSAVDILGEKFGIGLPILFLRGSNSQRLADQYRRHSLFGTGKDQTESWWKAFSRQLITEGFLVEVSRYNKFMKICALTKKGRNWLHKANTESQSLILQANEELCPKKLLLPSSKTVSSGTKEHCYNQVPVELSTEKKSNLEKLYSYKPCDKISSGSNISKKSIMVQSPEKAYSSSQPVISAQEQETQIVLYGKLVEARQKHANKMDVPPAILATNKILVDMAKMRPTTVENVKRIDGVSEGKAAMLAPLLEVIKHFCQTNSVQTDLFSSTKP

SMILES	IC50 [1] [nM]	GI50 ([2]; Homo sapiens) [nM]	GI50 [3, 4] [nM]	GI50 [2, 5] [nM]	GI50 [3, 6] [nM]
CCc1c(N2CCN(C(=O)c3nc(C)cc(F)c3O)CC2)c(=O)n2nc(C3=CCOCC3)nc2n1CC(=O)Nc1ccc(C(F)(F)F)nc1Cl [Example 49, N-(2-chloro-6-(trifluoromethyl)pyridin-3-yl)-2-(2-(3,6-dihydro-2H-pyran-4-yl)-5-ethyl-6-(4-(4-fluoro-3-hydroxy-6-methylpicolinoyl)piperazin-1-yl)-7-oxo-[1,2,4]triazolo[1,5-a]pyrimidin-4(7H)-yl)acetamide]	120	> 10000	120	–	–
Cc1nc(C(F)(F)F)ccc1NC(=O)Cn1c(C)c(N2CCN(C(=O)c3ncccc3O)CC2)c(=O)n2nc(C3=CCOCC3)nc12 [Example 129, 2-(2-(3,6-dihydro-2H-pyran-4-yl)-6-(4-(3-hydroxypicolinoyl)piperazin-1-yl)-5-methyl-7-oxo-[1,2,4]triazolo[1,5-a]pyrimidin-4(7H)-yl)-N-(2-methyl-6-(trifluoromethyl)pyridin-3-yl)acetamide]	500	> 10000	2550	–	–
CCc1c(N2CCN(C(=O)c3ncccc3O)CC2)c(=O)n2nc(C3=CCOCC3)nc2n1CC(=O)Nc1ccc(C(F)(F)F)c(F)c1C [Example 38, 2-(2-(3,6-dihydro-2H-pyran-4-yl)-5-ethyl-6-(4-(3-hydroxypicolinoyl)piperazin-1-yl)-7-oxo-[1,2,4]triazolo[1,5-a]pyrimidin-4(7H)-yl)-N-(3-fluoro-2-methyl-4-(trifluoromethyl)phenyl)acetamide]	40	> 10000	50	–	–
Cc1ccc(O)c(C(=O)N2CCN(c3c(C)n(CC(=O)Nc4ccc(C(F)(F)F)cc4)c4nc(C5=CCOCC5)nn4c3=O)CC2)n1 [Example 91, 2-(2-(3,6-dihydro-2H-pyran-4-yl)-6-(4-(3-hydroxy-6-methylpicolinoyl)piperazin-1-yl)-5-methyl-7-oxo-[1,2,4]triazolo[1,5-a]pyrimidin-4(7H)-yl)-N-(4-(trifluoromethyl)phenyl)acetamide]	80	> 10000	320	–	–
CCc1c(N2CCN(C(=O)c3ncccc3O)CC2)c(=O)n2nc(N3CCC[C@@H](F)C3)nc2n1CC(=O)Nc1ccc(C(F)(F)F)cc1Cl (single isomer, unassigned) [Example 15a, ((R)—N-(2-chloro-4-(trifluoromethyl)phenyl)-2-(5-ethyl-2-(3-fluoropiperidin-1-yl)-6-(4-(3-hydroxypicolinoyl)piperazin-1-yl)-7-oxo-[1,2,4]triazolo[1,5-a]pyrimidin-4(7H)-yl)acetamide) or ((S)—N-(2-chloro-4-(trifluoromethyl)phenyl)-2-(5-ethyl-2-(3-fluoropiperidin-1-yl)-6-(4-(3-hydroxypicolinoyl)piperazin-1-yl)-7-oxo-[1,2,4]triazolo[1,5-a]pyrimidin-4(7H)-yl)acetamide)]	140	–	–	> 10000	400
CCc1c(N2CCN(C(=O)c3nccc(Cl)c3O)CC2)c(=O)n2nc(N3CCOCC3)nc2n1CC(=O)Nc1cc(F)c(C(F)(F)F)cc1C [Example 6, 2-(6-(4-(4-chloro-3-hydroxypicolinoyl)piperazin-1-yl)-5-ethyl-2-morpholino-7-oxo-[1,2,4]triazolo[1,5-a]pyrimidin-4(7H)-yl)-N-(5-fluoro-2-methyl-4-(trifluoromethyl)phenyl)acetamide]	70	> 10000	270	–	–
CCc1c(N2CCN(C(=O)c3ncccc3O)CC2)c(=O)n2nc(C3=CCOCC3)nc2n1CC(=O)Nc1ccc(C(F)(F)F)cc1Cl [Example 96, N-(2-chloro-4-(trifluoromethyl)phenyl)-2-(2-(3,6-dihydro-2H-pyran-4-yl)-5-ethyl-6-(4-(3-hydroxypicolinoyl)piperazin-1-yl)-7-oxo-[1,2,4]triazolo[1,5-a]pyrimidin-4(7H)-yl)acetamide]	60	> 10000	60	–	–
CCc1c(N2CCN(C(=O)c3ncnc(C)c3O)CC2)c(=O)n2nc(C3=CCOCC3)nc2n1CC(=O)Nc1ccc(C(F)(F)F)cc1F [Example 107, 2-(2-(3,6-dihydro-2H-pyran-4-yl)-5-ethyl-6-(4-(5-hydroxy-6-methylpyrimidine-4-carbonyl)piperazin-1-yl)-7-oxo-[1,2,4]triazolo[1,5-a]pyrimidin-4(7H)-yl)-N-(2-fluoro-4-(trifluoromethyl)phenyl)acetamide]	50	> 10000	100	–	–
CCc1c(N2CCN(C(=O)c3ncnc(C)c3O)[C@H](C)[C@@H]2C)c(=O)n2nc(C3=CCOCC3)nc2n1CC(=O)Nc1ccc(C(F)(F)F)cc1Cl (single isomer, unassigned) [Example 122]	150	–	–	> 10000	100
CCc1c(N2CCN(C(=O)c3nccc(Cl)c3O)CC2)c(=O)n2nc(C3=CCOCC3)nc2n1CC(=O)Nc1ccc(C(F)(F)F)cc1C [Example 61, 2-(6-(4-(4-chloro-3-hydroxypicolinoyl)piperazin-1-yl)-2-(3,6-dihydro-2H-pyran-4-yl)-5-ethyl-7-oxo-[1,2,4]triazolo[1,5-a]pyrimidin-4(7H)-yl)-N-(2-methyl-4-(trifluoromethyl)phenyl)acetamide]	50	> 10000	50	–	–
CCc1c(N2CCN(C(=O)c3ncccc3O)CC2)c(=O)n2nc(C3=CCOCC3)nc2n1CC(=O)Nc1ccc(C(F)(F)F)nc1Cl [Example 45, N-(2-chloro-6-(trifluoromethyl)pyridin-3-yl)-2-(2-(3,6-dihydro-2H-pyran-4-yl)-5-ethyl-6-(4-(3-hydroxypicolinoyl)piperazin-1-yl)-7-oxo-[1,2,4]triazolo[1,5-a]pyrimidin-4(7H)-yl)acetamide]	130	> 10000	80	–	–
CCc1c(N2CCN(C(=O)c3ncccc3O)CC2)c(=O)n2nc(N3CCOCC3)nc2n1CC(=O)Nc1cc(F)c(C(F)(F)F)cc1Cl [Example 7, N-(2-chloro-5-fluoro-4-(trifluoromethyl)phenyl)-2-(5-ethyl-6-(4-(3-hydroxypicolinoyl)piperazin-1-yl)-2-morpholino-7-oxo-[1,2,4]triazolo[1,5-a]pyrimidin-4(7H)-yl)acetamide]	90	> 10000	210	–	–
CCc1c(N2CCN(C(=O)c3ncnc(C)c3O)CC2)c(=O)n2nc(C3=CCOCC3)nc2n1CC(=O)Nc1cc(F)c(C=O)cc1C [Example 54, 2-(2-(3,6-dihydro-2H-pyran-4-yl)-5-ethyl-6-(4-(5-hydroxy-6-methylpyrimidine-4-carbonyl)piperazin-1-yl)-7-oxo-[1,2,4]triazolo[1,5-a]pyrimidin-4(7H)-yl)-N-(5-fluoro-4-formyl-2-methylphenyl)acetamide]	1300	> 10000	6010	–	–
CCc1c(N2CCN(C(=O)c3ncccc3O)[C@H](C)C2)c(=O)n2nc(C3=CCOCC3)nc2n1CC(=O)Nc1ccc(C(F)(F)F)cc1 [Example 71, (R)-2-(2-(3,6-dihydro-2H-pyran-4-yl)-5-ethyl-6-(4-(3-hydroxypicolinoyl)-3-methylpiperazin-1-yl)-7-oxo-[1,2,4]triazolo[1,5-a]pyrimidin-4(7H)-yl)-N-(4-(trifluoromethyl)phenyl)acetamide]	70	> 10000	60	–	–
CCc1c(N2CCN(C(=O)c3ncccc3O)CC2)c(=O)n2nc(C3=CCOCC3)nc2n1CC(=O)Nc1cnc(C(F)(F)F)cc1Cl [Example 33, N-(4-chloro-6-(trifluoromethyl)pyridin-3-yl)-2-(2-(3,6-dihydro-2H-pyran-4-yl)-5-ethyl-6-(4-(3-hydroxypicolinoyl)piperazin-1-yl)-7-oxo-[1,2,4]triazolo[1,5-a]pyrimidin-4(7H)-yl)acetamide]	260	> 10000	220	–	–
CCc1c(N2CCN(C(=O)c3ncccc3O)CC2)c(=O)n2nc(N3CCC[C@@H](F)C3)nc2n1CC(=O)Nc1ccc(C(F)(F)F)nc1Cl [Example 16a, (R)—N-(2-chloro-6-(trifluoromethyl)pyridin-3-yl)-2-(5-ethyl-2-(3-fluoropiperidin-1-yl)-6-(4-(3-hydroxypicolinoyl)piperazin-1-yl)-7-oxo-[1,2,4]triazolo[1,5-a]pyrimidin-4(7H)-yl)acetamide]	190	> 10000	340	–	–
CCc1c(N2CCN(C(=O)c3ncccc3O)CC2)c(=O)n2nc(N3CCOCC3)nc2n1CC(=O)Nc1ccc(C(F)(F)F)cc1Cl [Example 2, N-(2-chloro-4-(trifluoromethyl)phenyl)-2-(5-ethyl-6-(4-(3-hydroxypicolinoyl)piperazin-1-yl)-2-morpholino-7-oxo-[1,2,4]triazolo[1,5-a]pyrimidin-4(7H)-yl)acetamide]	80	> 10000	190	–	–
CCc1cc(C)c(NC(=O)Cn2c(CC)c(N3CCN(C(=O)c4ncccc4O)CC3)c(=O)n3nc(C4=CCOCC4)nc23)cc1Cl [Example 104, N-(5-chloro-4-ethyl-2-methylphenyl)-2-(2-(3,6-dihydro-2H-pyran-4-yl)-5-ethyl-6-(4-(3-hydroxypicolinoyl)piperazin-1-yl)-7-oxo-[1,2,4]triazolo[1,5-a]pyrimidin-4(7H)-yl)acetamide]	70	> 10000	50	–	–

— patent publication US11878973B2, “Bicyclic compounds and their uses” (NOVARTIS AG, priority 2021, dated 2024)
